Experimental data reported in patent US9056209B2, “Apigenin-containing composition” (Kao Corporation, priority 2009, dated 2015).

Assay: Evaluation of stability of apigenin in composition (apigenin retention ratio by HPLC)
Type: physicochemical
Details: for Apigenin retention ratio (amount of apigenin stored at 50° C./amount of apigenin stored at −5° C.): apigenin about 9 ppm, stored one month
Protocol: Twenty gram of Roman chamomile was extracted with 200 mL of 50% butanediol for 7 days at room temperature, and then the extract was filtered to obtain 155 mL of a Roman chamomile extract. The evaporation residue in 1 mL of the extract was 18.6 mg, and the amount of apigenin in 1 mL of the extract was 305 ppm. This extract was used as the apigenin-containing extract in the following experiments. BHT was added to each of the solutions of various pH conditions, in an amount of 0, 1, 10, 100 and 500 ppm, respectively, and thus test solutions (final apigenin concentration: about 9 ppm) were prepared. The respective test solutions were stored for one month under the conditions of −5° C. and 50° C., and then the amount of apigenin in each of the solutions was measured by HPLC (Inertsil ODS-3 (internal diameter 3.0 mm, length 150 mm, particle size 5 μm) manufactured by GL Sciences, Inc., eluent: 50% aqueous solution of 25 mM potassium dihydrogen phosphate/50% methanol, column temperature: 40° C., detection: UV 340 nm). The ratio of the amount of apigenin stored at 50° C. with respect to that stored at −5° C. was determined as the apigenin retention ratio.

O=c1cc(-c2ccc(O)cc2)oc2cc(O)cc(O)c12 [Apigenin, apigenin]
apigenin retention ratio (in words) (mass ratio apigenin/BHT about 1 or greater, or pH of the solution less than 7, storage for a long time): high retention ratios were maintained
apigenin retention ratio (in words) (mass ratio apigenin/BHT about less than 1 (BHT 10 ppm or more) and pH 7 or higher): the apigenin retention ratio decreased
Apigenin retention ratio (amount of apigenin stored at 50° C./amount of apigenin stored at −5° C.) (pH 6, BHT 0 ppm): 103%
Apigenin retention ratio (amount of apigenin stored at 50° C./amount of apigenin stored at −5° C.) (pH 6, BHT 1 ppm): 102%
Apigenin retention ratio (amount of apigenin stored at 50° C./amount of apigenin stored at −5° C.) (pH 6, BHT 10 ppm): 98%
Apigenin retention ratio (amount of apigenin stored at 50° C./amount of apigenin stored at −5° C.) (pH 6, BHT 100 ppm): 96%
Apigenin retention ratio (amount of apigenin stored at 50° C./amount of apigenin stored at −5° C.) (pH 6, BHT 500 ppm): 96%
Apigenin retention ratio (amount of apigenin stored at 50° C./amount of apigenin stored at −5° C.) (pH 6.5, BHT 0 ppm): 100%
Apigenin retention ratio (amount of apigenin stored at 50° C./amount of apigenin stored at −5° C.) (pH 6.5, BHT 1 ppm): 94%
Apigenin retention ratio (amount of apigenin stored at 50° C./amount of apigenin stored at −5° C.) (pH 6.5, BHT 10 ppm): 98%
Apigenin retention ratio (amount of apigenin stored at 50° C./amount of apigenin stored at −5° C.) (pH 6.5, BHT 100 ppm): 96%
Apigenin retention ratio (amount of apigenin stored at 50° C./amount of apigenin stored at −5° C.) (pH 6.5, BHT 500 ppm): 99%
Apigenin retention ratio (amount of apigenin stored at 50° C./amount of apigenin stored at −5° C.) (pH 7, BHT 0 ppm): 96%
Apigenin retention ratio (amount of apigenin stored at 50° C./amount of apigenin stored at −5° C.) (pH 7, BHT 1 ppm): 96%
Apigenin retention ratio (amount of apigenin stored at 50° C./amount of apigenin stored at −5° C.) (pH 7, BHT 10 ppm): 98%
Apigenin retention ratio (amount of apigenin stored at 50° C./amount of apigenin stored at −5° C.) (pH 7, BHT 100 ppm): 82%
Apigenin retention ratio (amount of apigenin stored at 50° C./amount of apigenin stored at −5° C.) (pH 7, BHT 500 ppm): 35%
Apigenin retention ratio (amount of apigenin stored at 50° C./amount of apigenin stored at −5° C.) (pH 8, BHT 0 ppm): 98%
Apigenin retention ratio (amount of apigenin stored at 50° C./amount of apigenin stored at −5° C.) (pH 8, BHT 1 ppm): 99%
Apigenin retention ratio (amount of apigenin stored at 50° C./amount of apigenin stored at −5° C.) (pH 8, BHT 10 ppm): 91%
Apigenin retention ratio (amount of apigenin stored at 50° C./amount of apigenin stored at −5° C.) (pH 8, BHT 100 ppm): 73%
Apigenin retention ratio (amount of apigenin stored at 50° C./amount of apigenin stored at −5° C.) (pH 8, BHT 500 ppm): 11%
